Results: US7902341B2, “Methods and compositions for modulating somatolactogenic functions” (Trustees of the University of Pennsylvania, priority 1999, dated 2011)

Experiments:
PRL = target: T1, PRL (Homo sapiens, UniProt P01236); assay: Detection of PRL-CypB complexes by co-immunoprecipitation; assay type: binding; details: for interaction with PRL (co-immunoprecipitation): purified epitope-tagged recombinant proteins admixed, reducing agent or divalent cation
T1 construct: Full length PRL cDNA was generated by PCR; made in house; host or cells: Drosophila S2 cells
T1 sequence (P01236 29-227): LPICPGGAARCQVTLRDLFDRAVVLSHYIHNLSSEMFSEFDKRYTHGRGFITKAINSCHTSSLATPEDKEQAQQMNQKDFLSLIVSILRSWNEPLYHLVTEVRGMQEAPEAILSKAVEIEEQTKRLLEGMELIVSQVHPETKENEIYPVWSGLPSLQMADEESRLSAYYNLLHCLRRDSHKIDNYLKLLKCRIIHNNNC
Experimental: Complexes were immunoprecipitated by the addition of 1 μg of polyclonal anti-histidine antibody (#sc-803, Santa Cruz Biotech) for one hour followed by roatation for one hour with 50 μl Protein-A beads. Precipiated complexes were separated by 15% SDS-PAGE and transferred to PVDF. Immunoblots were blocked for one hour at room temperature with 5% milk in PBS containing 1% TWEEN-20 (PBST) and immunoblotted with a monoclonal anti-myc antibody (1:1000, mAb 9E10) for one hour. Immunoblots were analyzed by incubation with an anti-mouse secondary antibody conjugated to horseradish peroxidase (1:2000, Boehringer Mannheim) for one hour followed by incubation with ECL Plus (Amersham Pharmacia Biotech) amnd exposure to Biomax film (Kodak).

Nb2 cells = assay: Nb2 cell proliferation (3H-thymidine) to assess CypB modulation of somatolactogenic action; assay type: cell-based, rat; details: for enhancement of PRL-driven growth compared to cultures that received only PRL: Nb2 cells, added to PRL-containing medium, most prominent at 5-10 mM CypB and 50 pM PRL
Experimental: (§1) The effect of exogenous CypB on PRL-driven proliferation was examined with the rat Nb2 T-cell and the human T47D breast cancer line. […] This dose-dependent biphasic effect was most prominent at physiologic concentrations (5-10 mM) of CypB and PRL (50 pM) found in human serum. […] To determine the effect of CypB on cellular growth driven by the larger family of cytokines, to which PRL belongs, proliferation driven by interleukin-2 (IL-2), IL-3 and GH was examined.
Nb2-cells (5×10^4; PRL-dependent, rat T-lymphoma) were plated in each well of 96 well plates in a defined DMEM-serum free medium (0.1 mM 2-mercaptoethanol, 1% penicillin/streptomycin, and 1% ITS+(Calbiochem)). Cells were rested for 24 hours at 37° C. in this defined medium in the absence of PRL before the addition of 5-500 pM PRL (either as human pituitary isolated PRL, National Hormone and Pituitary Program, NIDDK; recombinant human PRL from E. coli, Genzyme; or recombinant human PRL from Drosophila S2 cells) alone or premixed with 1-2000 fold excess of purified CypB. Parallel studies were performed using human pituitary-derived GH (National Hormone and Pituitary Program, NIDDK). Cultures were incubated for 48 hours at 37° C. and proliferation was evaluated by the addition of 0.5 μCi of ^3H-thymidine for four hours followed by harvesting and scintillography. When stimulated with PRL alone, Nb2 cells yield sigmoid shaped growth curves that plateau at approximately 2 ng PRL/ml.

[1] = system: IL-2- and IL-3-driven proliferation; assay: IL-2- and IL-3-driven proliferation with added CypB; assay type: cell-based; details: varying concentration of CypB
Experimental: as §1

[2] = system: T47D human breast cancer cells; assay: Nuclear retrotranslocation of PRL by indirect anti-PRL immunofluorescence; assay type: cell-based; details: defined T47D culture medium containing the co-mitogen EGF
Experimental: Experiments were performed to examine the ability of CypB to enhance nuclear retrotranslocation of PRL, and thereby PRL-driven proliferation.
The role of this sequence in the CypB-mediated retrotranslocation of PRL, and its associated enhancement of growth was tested by mutagenic approaches. The putative nuclear localization sequence of CypB was deleted in the mutant CypB-NT.

Substance | interaction with PRL (co-immunoprecipitation) (PRL) | enhancement of PRL-driven growth compared to cultures that received only PRL (Nb2 cells) | effect on IL-2-driven proliferation [1] | effect on IL-3-driven proliferation [1] | interaction with PRL in human serum (co-immunoprecipitation; binding to sepharose-conjugated recombinant CypB) (PRL; human serum) | enhancement of PRL-induced proliferation (Nb2 cells; cell line not stated) | enhancement of GH-driven proliferation compared to GH alone (Nb2 cells; physiological concentrations of CypB, human pituitary-derived GH) | T47D nuclei exhibiting anti-PRL immunofluorescence [2]
CypA: recombinant form of the highly homologous cyclophilin family member [reference compound] | failed to interact with PRL | did not result in any potentiation | – | – | – | – | – | –
CypB: cyclophilin family cis-trans peptidyl prolyl isomerase; recombinant His-tagged wild-type protein (SEQ ID NO: 1) | direct interaction of CypB with PRL | eight-fold | Neither IL-2- nor IL-3-driven proliferation was altered | Neither IL-2- nor IL-3-driven proliferation was altered | direct co-immunoprecipitation of PRL with CypB from human serum | failed to enhance PRL-induced proliferation | forty-fold | 95-100%
